Results as given in patent US20220331303A1, “USE OF AN OREXIN 2 RECEPTOR AGONIST FOR THE TREATMENT OF EXCESSIVE SLEEPINESS” (Takeda Pharmaceutical Company Limited, priority 2019, published 2022).
Read-outs that look alike come from different tables or passages of the source.

Columns and labels:
[1] = Single-dose plasma PK of Compound A in subjects with OSA; assay type: in vivo, human; settings: for half-life: read-out: t½, z (converted)
Procedure: The treatment periods began on Day 1 of Treatment Period 1 (Study Day 1) with Treatment Periods 2 and 3 commencing on Study Days 3 and 5, respectively. In the morning of Day 1 of Treatment Period 1, eligible subjects were randomized to 1 of the 6 sequence groups as listed in Table 36. After randomization, the subject was dosed in 3 treatment periods according to the order defined by the sequence group to which he/she was randomized. On Day 1 of each treatment period, Compound A or placebo was administered as a single 9-hour IV infusion commencing at approximately 08:00. The infusion was terminated at approximately 17:00. On Day 1 of each treatment period, four 40-minute maintenance of wakefulness test (MWT) sessions was performed at 2, 4, 6, and 8 hours after the start of the infusion. Subjects were required to stay awake in between the MWT sessions.
On Day 1 of Treatment Period 1, all eligible subjects were randomized and received the first dose of study drug. Compound A or placebo was administered as a single 9-hour IV infusion commencing at approximately 08:00. On each dosing day (Study Days 1, 3, and 5), 40-minute MWT sessions were performed at 2, 4, 6, and 8 hours after the start of the infusion. There was a minimum 24-hour washout interval between the end of the infusion and the commencement of treatment in subsequent treatment periods to allow for complete elimination of the preceding treatment effect. The KSS and PVT were collected per the Schedule of Study Procedures. Blood samples for determination of Compound A plasma concentrations were collected predose and at specified time points postdose, Safety assessments were recorded. During the study, AEs were recorded, clinical laboratory tests, vital signs, and safety ECGs were obtained. Study Days 2, 4, and 6 were washout days. Subjects were discharged from the unit following completion of study exit procedures in the afternoon of Study Day 6 (Day 2 of Treatment Period 3). Subjects were contacted by telephone approximately 7 days (±2 days) following unit discharge for a safety check.
Blood samples used for PK analysis of Compound A was collected according to Table 38.

patients with NT2 = assay: KSS in patients with NT2; assay type: in vivo, human; settings: 9 hours postdose
Procedure: The purpose of the study was to evaluate the safety, tolerability, pharmacokinetics and pharmacodynamics of Compound A after multiple days of IV administration in patients with NT2. NT2 patients were evaluated in Cohort C1 and C2 (Table 30). Compound A or placebo were administered via IV infusion over 9 hours once daily for 7 days. A total of 14 patients with NT2 were treated with Compound A or placebo (5, 4, and 5 subjects in the placebo, Compound A 44 mg, and Compound A 112 mg groups, respectively). In this part, potential efficacy of Compound A was evaluated with MWT, ESS, KSS, night-time PSG (NPSG), and PGI-C as an exploratory PD assessment.

[2] = human, intravenous, 44 mg single dose, subjects with OSA, plasma, mean (PK set)
[3] = human, intravenous, 112 mg single dose, subjects with OSA, plasma, mean (PK set)

COC(=O)N1CCC[C@H](NS(C)(=O)=O)[C@@H]1CO[C@H]1CC[C@@H](c2ccccc2)CC1 [Compound A, methyl (2R,3S)-3-((methylsulfonyl)amino)-2-(((cis-4-phenylcyclohexyl)oxy)methyl)piperidine-1-carboxylate]
Plasma Concentration Mean ([1]; 44 mg, 0 h After Start of Infusion): BLQ
Plasma Concentration Mean ([1]; 44 mg, 0.17 h From End of Infusion): 0.05369 µg/mL
Plasma Concentration Mean ([1]; 44 mg, 1 h After Start of Infusion): 0.0598 µg/mL
Plasma Concentration Mean ([1]; 44 mg, 1 h From End of Infusion): 0.0299 µg/mL
Plasma Concentration Mean ([1]; 44 mg, 3 h After Start of Infusion): 0.09243 µg/mL
Plasma Concentration Mean ([1]; 44 mg, 4 h From End of Infusion): 0.01522 µg/mL
Plasma Concentration Mean ([1]; 44 mg, 5 h After Start of Infusion): 0.1017 µg/mL
Plasma Concentration Mean ([1]; 44 mg, 7 h After Start of Infusion): 0.08637 µg/mL
Plasma Concentration Mean ([1]; 44 mg, 9 h After Start of Infusion): 0.09042 µg/mL
Plasma Concentration Mean ([1]; 44 mg, 15 h From End of Infusion (24 hours from start of infusion)): 0.002462 µg/mL
Ceoi ([1]; 112 mg single dose, subjects with OSA, plasma, mean (PK set)): 211.6 ng/mL
Plasma Concentration Mean ([1]; 112 mg, 0 h After Start of Infusion): BLQ
Plasma Concentration Mean ([1]; 112 mg, 0.17 h From End of Infusion): 0.1393 µg/mL
Plasma Concentration Mean ([1]; 112 mg, 1 h After Start of Infusion): 0.1629 µg/mL
Plasma Concentration Mean ([1]; 112 mg, 1 h From End of Infusion): 0.07787 µg/mL
Plasma Concentration Mean ([1]; 112 mg, 3 h After Start of Infusion): 0.2087 µg/mL
Plasma Concentration Mean ([1]; 112 mg, 4 h From End of Infusion): 0.03412 µg/mL
Plasma Concentration Mean ([1]; 112 mg, 5 h After Start of Infusion): 0.2223 µg/mL
Plasma Concentration Mean ([1]; 112 mg, 7 h After Start of Infusion): 0.2089 µg/mL
Plasma Concentration Mean ([1]; 112 mg, 9 h After Start of Infusion): 0.2116 µg/mL
Plasma Concentration Mean ([1]; 112 mg, 15 h From End of Infusion (24 hours from start of infusion)): 0.005962 µg/mL
AUC(0-inf) [1, 2]: 0.899 µg·h/mL
AUC(0-t) [1, 2]: 0.885 µg·h/mL
Cmax [1, 2]: 0.102 µg/mL
clearance [1, 2]: 860 mL/min
concentration at 9 h ([1]; human, intravenous, 44 mg single dose, subjects with OSA, plasma, mean (PK set), read-out: Ceoi): 0.0904 µg/mL
half-life [1, 2]: 3.79 h
AUC(0-inf) [1, 3]: 2.06 µg·h/mL
AUC(0-t) [1, 3]: 2.04 µg·h/mL
Cmax [1, 3]: 0.23 µg/mL
clearance [1, 3]: 954 mL/min
half-life [1, 3]: 3.93 h
Vd ([1]; human, plasma, intravenous, 44 mg, 44 mg single dose, subjects with OSA, plasma, mean (PK set), read-out: Vss): 129 L
Vd ([1]; human, plasma, intravenous, 44 mg, 44 mg single dose, subjects with OSA, plasma, mean (PK set), read-out: Vz): 278 L
Vd ([1]; human, plasma, intravenous, 112 mg, 112 mg single dose, subjects with OSA, plasma, mean (PK set), read-out: Vss): 139 L
Vd ([1]; human, plasma, intravenous, 112 mg, 112 mg single dose, subjects with OSA, plasma, mean (PK set), read-out: Vz): 319 L
Mean change from baseline in KSS (patients with NT2; Compound A 44 mg, Day 1): −0.5
Mean change from baseline in KSS (patients with NT2; Compound A 44 mg, Day 7): 0.0
Mean change from baseline in KSS (patients with NT2; Compound A 112 mg, Day 1): −1.0
Mean change from baseline in KSS (patients with NT2; Compound A 112 mg, Day 7): −0.8
